Source: PMC7230911, “Meroterpenoids from the Brown Alga Cystoseira usneoides as Potential Anti-Inflammatory and Lung Anticancer Agents” (Marine Drugs, 2020)
Where two headings read alike, the source gives them in different places.

Tests used:
[1] = tested on: A549 human cancer cell line; conditions: cited from earlier work
[2] = tested on: LPS-stimulated RAW264.7 macrophages; conditions: cited from earlier work
[3] = tested on: several human cancer cell lines, including A549 cells; set-up: method as in PMID 19271727, PMID 22920243; conditions: mean over several human cancer cell lines; cited from earlier work
A549 cells = test: Cell cycle analysis of A549 cells by flow cytometry; assay type: cell-based, human; conditions: 0.2 μg/mL, 24 h, positive control
Procedure: We next investigated whether the treatment with AMTs 1–8 caused any cell cycle-related event, which inhibit the viability of A549 cell line. Thus, the cells were treated for 24 h with the AMTs at concentrations of IC50 (Table 1), or with colchicine (at 0.2 μg/mL) as the positive control, and then subjected to flow cytometry analysis to evaluate the distribution of cells in the different phases of the cell cycle (Figure 5A).
Figure 5 Effects of meroterpenoids 1–8 on cell cycle distribution of A549 cells. Cells were incubated with IC50 doses of the compounds for 24 h. (A) Cells were harvested to measure the cell cycle distribution by flow cytometry. (B) Quantitative analysis of cell cycle distribution after treatment. Data represent mean ±SE from three independent experiments. * p < 0.05, ** p < 0.01, and *** p < 0.001 compared with the untreated group (control).
For cell cycle analysis by flow cytometry, A549 cells were seeded at 1 × 10^6 cells/well in 6-well plates and incubated for 24 h followed by treatment with the AMTs, at concentration of IC50, and further incubation for 24 h. Colchicine (final concentration of 0.2 μg/mL) was used as positive control. Cells were harvested after trypsinization and washed once with PBS. Then, the cells were centrifuged at 1500 rpm for 5 min (25 °C), the pellet was fixed with 1 mL of ice-cold 70% ethanol, and the samples were stored at −4 °C overnight. Then the cells were washed with PBS and incubated in the darkness with PBS containing 5 mg/mL of RNase A for 48 h at 4 °C. Subsequently, 50 µL of propidium iodide (0.1 mg/mL) was added and the cells were incubated for 1 h at 4 °C. The relative DNA content per cell was analyzed using a Beckman Coulter Cytomics FC 500 MPL (Beckman Coulter Inc, San Diego, CA, USA). The data acquisition was performed with the DML program. The analysis of the acquired data was performed with the CXP cytometer.

[4] = tested on: several human cancer cell lines, including A549 cell line; set-up: method as in PMID 22775218; conditions: cited from earlier work

## 5β-hydroxyaplysin
[1]; read-out: IC50 towards A549
  IC50: 35.3 µM

## 5β-hydroxypalisadin B
[2]
  production of NO, TNF-α, IL-6, IL-1β and COX-2, iNOS expression (in words): inhibit

## C=C(C)[C@@H]1CCC(C)(O)[C@H](Br)CC[C@@]2(C)C(=C(C)CC[C@@H]2Br)Cc2cc(ccc2O)C(=O)O1 (stereo partly shown) [bromophycolide M]
[3]
  IC50: 3.1 µM

## C=C(C)[C@@H]1CCC(C)(O)[C@H](Br)CC[C@@]2(C)[C@H](Cc3cc(ccc3O)C(=O)O1)C(C)=CC[C@@H]2Br (stereo partly shown) [bromophycolide N]
[3]
  IC50: 8.6 µM

## CC1=CC[C@H](Br)[C@@]2(C)CC[C@@H](Br)C(C)(O)CC[C@@H](C(C)(C)Br)OC(=O)c3ccc(O)c(c3)C[C@H]12 (stereo partly shown) [bromophycolide O]
[3]
  IC50: 9.7 µM

## C=C1CC[C@H](Br)[C@@]2(C)CC[C@@H](Br)[C@@]3(C)CC[C@H](OC(=O)c4ccc(O)c(c4)C[C@H]12)C(C)(C)O3 [bromophycolide P]
[3]
  IC50: 7.9 µM

## CC1=C2Cc3cc(ccc3O)C(=O)O[C@H]3CC[C@@](C)(OC3(C)C)[C@H](Br)CC[C@]2(C)[C@@H](Br)CC1 [bromophycolide Q]
[3]
  IC50: 2 µM

## COc1cc2c(c(OC)c1OC)-c1ccc(OC)c(=O)cc1[C@@H](NC(C)=O)CC2 [colchicine, reference compound]
A549 cells
  cells arrested in G2/M phase: 89.88%

## C=C1C[C@H](O)[C@H](Br)C(C)(C)[C@@]12CCC(C)=C(Cl)C2 [elatol]
[1]; read-out: IC50 towards A549
  IC50: 4.8 µM
[4]
  cell cycle effect (in words): cell cycle arrest in the G1 and the sub-G1 phases

## CC(C)[C@@H]1CC=C[C@H]2[C@H]3[C@@](C)(C=CC(=O)[C@@]3(C)O)CC[C@]12CBr [sphaerococcenol A]
[1]; read-out: IC50 growth of A549 cells
  IC50: 3.7 µM

## bromophycoic acid D
[3]
  IC50: 6.8 µM

## nerogioltriol
[2]
  activation of NFκB and production of NO, TNF-α and COX-2 (in words): inhibit
